Source: patent publication US20110318768A1, “METHOD FOR DETERMINING SENSITIVITY OF TUMOR CELLS TO TYROSINE KINASE INHIBITOR AND COMPUTER PROGRAM PRODUCT” (SYSMEX CORPORATION, priority 2010, published 2011)

The compounds below were run on tyrosine kinase in cell membrane fraction of ZR-75-1 (assay: Tyrosine kinase activity inhibition rate in cell membrane fraction (Poly-Glu4-Tyr substrate)). Details: 25 μM kinase inhibitor, 25 μM ATP.
Assay type: biochemical
Method: (§1) Breast cancer cell lines shown in Table 3 were cultured in a 150 mm dish so as to be about 80% confluent, the cells were recovered using PBS and a scraper, and a cell pellet was obtained by centrifugal operation (900×g, for 5 minutes, at 4° C.). The pellet was frozen with liquid nitrogen and stored at −80° C. until preparation of the measurement sample.
(§2) 500 μl of NP40 (−) solubilized buffer (20 mM HEPES (pH 7.4)), (w/v) % glycerol, 0.2% protease inhibitor cocktail (#P8340: Sigma-Aldrich (product composition: 104 mM AEBSF, 80 μM aprotinin, 4 mM bestatin, 1.4 mM E-64, 2 mM leupeptin, 1.5 mM Pepstatin A), 50 mM NaF and 200 μM Na3VO4) was added to the cell pellet, followed by stirring for 2 seconds three times using a vortex mixer. After being allowed to stand for 10 minutes, the soluble fraction was removed by centrifugal operation (at 20000×g, for 30 minutes, at 4° C.). The obtained pellet was resuspended in 500 μl of NP40 (−) solubilized buffer, the soluble fraction was again removed by centrifugal operation (at 20000×g, for 20 minutes, at 4° C.), and the pellet was washed. The pellet was resuspended by adding 500 μl of NP40 (+) solubilized buffer (a buffer prepared by adding NP-40 to the NP40 (−) solubilized buffer at a final concentration of 1%) to the pellet, pipetting fifty times, and vortexing for 2 seconds three times. After being allowed to stand for 10 minutes, a cell membrane fraction containing a membrane protein was obtained by centrifugal operation (at 20000×g, for 40 minutes, at 4° C.). The protein concentration of the fraction was measured by DC protein assay (#500-0116 JA: Bio-Rad) and the fraction was used as a sample for kinase activity measurement. The sample was frozen with liquid nitrogen and stored at −80° C. until used for the following kinase activity measurement.
(§3) NeutrAvidin Coated Plates (HBC) (96 white plate; #15509: Pierce) were washed three times with 300 μl of TBS-T (20 mM Tris-HCl (pH 7.4)), 150 mM NaCl, 0.1% Tween), and then 100 μl of Poly-Glu4-Tyr biotin conjugate (#12440: Upstate) which had been diluted to 1 μg/ml with TBS (20 mM Tris-HCl (pH 7.4), 150 mM NaCl) was added to the wells. After shaking at 37° C. and 400 rpm for 90 minutes, the wells were washed with 300 μl of TBS-T three times and a measuring plate was obtained.
(§4) The measurement sample was diluted with a kinase buffer (20 mM HEPES (pH 7.4), 25 mM MgCl2, 1.25 mM MnCl2, 250 μM Na3VO4, 12.5 (w/v) % glycerol) so as to adjust the protein concentration to 6.25 μg/ml. The diluted measurement sample was transferred to wells of a 96 well V bottom plate. A DMSO solution (inhibitor concentration: 5 mM) containing one type of tyrosine kinase inhibitors (Inhibitors 1 to 10 shown in Table 6) was added to the wells at a ratio of 1:160 based on the diluted measurement sample solution, followed by mixing thereof. As the control, DMSO was added to the diluted measurement sample at the same ratio as the solution of the inhibitor. The used tyrosine kinase inhibitors are represented as Inhibitors 1 to 10 in Table 6.
(§5) After addition of the inhibitors, a mixed solution of the measurement sample and the inhibitor was allowed to stand at room temperature for 10 minutes. 40 μl of the mixed solution was transferred to wells of the measuring plate and 10 μl of an ATP solution (20 mM HEPES (pH 7.4), […]) as the phosphate group donor was added to the wells.
(§6) The composition of the solution in the wells is as follows: protein concentration: 5 μg/ml, 20 mM HEPES (pH 7.4), 20 mM MgCl2, 1 mM MnCl2, 200 μM Na3VO4, 10 (w/v) % glycerol, 25 μM ATP, 25 μM kinase inhibitor.
(§7) After shaking the measuring plate at 37° C. and 400 rpm for 60 minutes, the solution was removed from the measuring plate, and the wells were washed with 300 μl of TBS-T three times. 100 μl of Starting Block T20 (TBS) (#37543: Pierce) as a blocking solution was added to the wells, followed by blocking at 37° C. and 400 rpm for 10 minutes. The blocking solution was removed from the measuring plate. […]
Compound `CN1CCC(Nc2ncc3ncnc(Nc4ccc(F)c(Cl)c4)c3n2)CC1` [Inhibitor 2] has an Inhibition rate of 9.0%.

These compounds were tested on tyrosine kinase in cell membrane fraction of HS578T in the same assay as above. Details: 25 μM kinase inhibitor, 25 μM ATP.
Assay type: biochemical
Method: as §1, §2, §3, §4, §5, §6, §7
Work on `CN1CCC(Nc2ncc3ncnc(Nc4ccc(F)c(Cl)c4)c3n2)CC1` [Inhibitor 2] yielded an Inhibition rate of 20.8%.

The compounds below were run on tyrosine kinase in cell membrane fraction of HCC1419 in the same assay as above. Details: 25 μM kinase inhibitor, 25 μM ATP.
Assay type: biochemical
Method: as §1, §2, §3, §4, §5, §6, §7
With `CN1CCC(Nc2ncc3ncnc(Nc4ccc(F)c(Cl)c4)c3n2)CC1` [Inhibitor 2] the Inhibition rate was 6.2%.

Each compound was assayed on tyrosine kinase in cell membrane fraction of BT-20 in the same assay as above. Details: 25 μM kinase inhibitor, 25 μM ATP.
Assay type: biochemical
Method: as §1, §2, §3, §4, §5, §6, §7
`CN1CCC(Nc2ncc3ncnc(Nc4ccc(F)c(Cl)c4)c3n2)CC1` [Inhibitor 2] was tested, and the Inhibition rate was 18.9%.

What follows are compounds tested on tyrosine kinase in cell membrane fraction of AU565 in the same assay as above. Details: 25 μM kinase inhibitor, 25 μM ATP.
Assay type: biochemical
Method: as §1, §2, §3, §4, §5, §6, §7
`CN1CCC(Nc2ncc3ncnc(Nc4ccc(F)c(Cl)c4)c3n2)CC1` [Inhibitor 2] showed an Inhibition rate of 7.7%.

What follows are compounds tested on tyrosine kinase in cell membrane fraction of BT-474 in the same assay as above. Details: 25 μM kinase inhibitor, 25 μM ATP.
Assay type: biochemical
Method: as §1, §2, §3, §4, §5, §6, §7
With `CN1CCC(Nc2ncc3ncnc(Nc4ccc(F)c(Cl)c4)c3n2)CC1` [Inhibitor 2] the Inhibition rate was 10.5%.

What follows are compounds tested on tyrosine kinase in cell membrane fraction of MDA-MB-157 in the same assay as above. Details: 25 μM kinase inhibitor, 25 μM ATP.
Assay type: biochemical
Method: as §1, §2, §3, §4, §5, §6, §7
For `CN1CCC(Nc2ncc3ncnc(Nc4ccc(F)c(Cl)c4)c3n2)CC1` [Inhibitor 2], the Inhibition rate was 14.3%.

What follows are compounds tested on tyrosine kinase in cell membrane fraction of HCC1937 in the same assay as above. Details: 25 μM kinase inhibitor, 25 μM ATP.
Assay type: biochemical
Method: as §1, §2, §3, §4, §5, §6, §7
Compound `CN1CCC(Nc2ncc3ncnc(Nc4ccc(F)c(Cl)c4)c3n2)CC1` [Inhibitor 2] has an Inhibition rate of 28.1%.

Each compound was assayed on tyrosine kinase in cell membrane fraction of HCC1806 in the same assay as above. Details: 25 μM kinase inhibitor, 25 μM ATP.
Assay type: biochemical
Method: as §1, §2, §3, §4, §5, §6, §7
`CN1CCC(Nc2ncc3ncnc(Nc4ccc(F)c(Cl)c4)c3n2)CC1` [Inhibitor 2] was tested, and the Inhibition rate was 29.6%.

What follows are compounds tested on tyrosine kinase in cell membrane fraction of HCC1428 in the same assay as above. Details: 25 μM kinase inhibitor, 25 μM ATP.
Assay type: biochemical
Method: as §1, §2, §3, §4, §5, §6, §7
In the case of `CN1CCC(Nc2ncc3ncnc(Nc4ccc(F)c(Cl)c4)c3n2)CC1` [Inhibitor 2], the Inhibition rate is reported as 6.8%.

What follows are compounds tested on tyrosine kinase in cell membrane fraction of UACC893 in the same assay as above. Details: UACC893; 25 μM kinase inhibitor, 25 μM ATP.
Assay type: biochemical
Method: as §1, §2, §3, §4, §5, §6, §7
For `CN1CCC(Nc2ncc3ncnc(Nc4ccc(F)c(Cl)c4)c3n2)CC1` [Inhibitor 2], the Inhibition rate was 4.1%.

The compounds below were run on tyrosine kinase in cell membrane fraction of MDA-MB-231 in the same assay as above. Details: 25 μM kinase inhibitor, 25 μM ATP.
Assay type: biochemical
Method: as §1, §2, §3, §4, §5, §6, §7
In the case of `CN1CCC(Nc2ncc3ncnc(Nc4ccc(F)c(Cl)c4)c3n2)CC1` [Inhibitor 2], the Inhibition rate is reported as 23.5%.

What follows are compounds tested on tyrosine kinase in cell membrane fraction of T47D in the same assay as above. Details: 25 μM kinase inhibitor, 25 μM ATP.
Assay type: biochemical
Method: as §1, §2, §3, §4, §5, §6, §7
Work on `CN1CCC(Nc2ncc3ncnc(Nc4ccc(F)c(Cl)c4)c3n2)CC1` [Inhibitor 2] yielded an Inhibition rate of 7.7%.

The compounds below were run on tyrosine kinase in cell membrane fraction of MDA-MB-436 in the same assay as above. Details: 25 μM kinase inhibitor, 25 μM ATP.
Assay type: biochemical
Method: as §1, §2, §3, §4, §5, §6, §7
`CN1CCC(Nc2ncc3ncnc(Nc4ccc(F)c(Cl)c4)c3n2)CC1` [Inhibitor 2] showed an Inhibition rate of 19.0%.

Each compound was assayed on tyrosine kinase in cell membrane fraction of BT-549 in the same assay as above. Details: 25 μM kinase inhibitor, 25 μM ATP.
Assay type: biochemical
Method: as §1, §2, §3, §4, §5, §6, §7
`CN1CCC(Nc2ncc3ncnc(Nc4ccc(F)c(Cl)c4)c3n2)CC1` [Inhibitor 2] showed an Inhibition rate of 21.7%.

The compounds below were run on tyrosine kinase in cell membrane fraction of HCC1569 in the same assay as above. Details: 25 μM kinase inhibitor, 25 μM ATP.
Assay type: biochemical
Method: as §1, §2, §3, §4, §5, §6, §7
`CN1CCC(Nc2ncc3ncnc(Nc4ccc(F)c(Cl)c4)c3n2)CC1` [Inhibitor 2] gave an Inhibition rate of 25.0%.

These compounds were tested on tyrosine kinase in cell membrane fraction of MCF7 in the same assay as above. Details: 25 μM kinase inhibitor, 25 μM ATP.
Assay type: biochemical
Method: as §1, §2, §3, §4, §5, §6, §7
For `CN1CCC(Nc2ncc3ncnc(Nc4ccc(F)c(Cl)c4)c3n2)CC1` [Inhibitor 2], the Inhibition rate was 19.9%.
